“And” between values parts separate entries of the source, which are not always exact repeats. Equal entries are not always repeated.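 Grown in 96-well plates, cells were treated for 48 hours with each compound at five concentrations. Insufficient inhibition: endpoint recorded as highest concentration tested. Here, GI50 denotes the concentration required for 50% inhibition of growth. TGI: total growth inhibition.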
Experiments:
Experiment in all cases: NCI tumour cell line growth inhibition, 48 h
[1] = tested on: CAKI-1 renal
[2] = tested on: HCT-116 colon
[3] = tested on: HOP-62 NSCLC
[4] = tested on: HOP-92 NSCLC
[5] = tested on: HS 578T breast
[6] = tested on: MOLT-4 leukemia
[7] = tested on: NCI-H522 lung
[8] = tested on: SF-295 CNS
[9] = tested on: DLD-1 colon

Which TGI [1] does the source give for `O=C(CC(O)(C(F)(F)F)C(F)(F)F)c1cc(CC(=O)C(O)(C(F)(F)F)C(F)(F)F)cc(CC(=O)C(O)(C(F)(F)F)C(F)(F)F)c1` here?
The TGI was 5.34 µM.

What about the TGI [2] of the same molecule?
The TGI was 2.56 µM.

And the TGI [3]?
The TGI was 3.29 µM.

What about the TGI [4] of the same molecule?
The TGI was 3.35 µM.

And the TGI [5]?
Its TGI is over 10 µM.

What about the TGI [6] of the same molecule?
Its TGI is over 10 µM.

And the TGI [7]?
Its TGI is 4.59 µM.

And the TGI [8]?
Its TGI is 4.47 µM.

For `CCOC(=O)C(=Cc1cccc(Cl)c1)C(=O)OCC`, which GI50 [1] is on record?
Its GI50 is 2.19 µM.

And the TGI [1]?
Its TGI is 5.45 µM.

And the GI50 [2]?
Its GI50 is 1.82 µM.

What about the TGI [2] of the same molecule?
The TGI was 3.83 µM.

What about the GI50 [3] of the same molecule?
Its GI50 is 2.69 µM.

And the TGI [3]?
Its TGI is 7.58 µM.

And the GI50 [4]?
Its GI50 is 1.74 µM.

What about the TGI [4] of the same molecule?
The TGI was 4.49 µM.

What about the GI50 [5] of the same molecule?
Its GI50 is 4.29 µM.

And the TGI [5]?
The TGI was 29.8 µM.

And the GI50 [6]?
The GI50 was 3.08 µM.

What about the TGI [6] of the same molecule?
Its TGI is 9.81 µM.

And the GI50 [7]?
Its GI50 is 1.53 µM.

What about the TGI [7] of the same molecule?
The TGI was 3.21 µM.

What about the GI50 [8] of the same molecule?
Its GI50 is 3.61 µM.

And the TGI [8]?
Its TGI is 13.4 µM.

How did the GI50 [1] turn out when `C[C@H]1Oc2cc(cnc2N)-c2c(nn(C)c2C#N)CN(C)C(=O)c2ccc(F)cc21` was run?
Its GI50 is 18.3 µM.

What about the TGI [1] of the same molecule?
Its TGI is over 100 µM.

And the GI50 [2]?
The GI50 was 22.9 µM.

What about the TGI [2] of the same molecule?
The TGI was over 100 µM.

And the GI50 [3]?
The GI50 was 23 µM.

What about the TGI [3] of the same molecule?
The TGI was over 100 µM.

What about the GI50 [4] of the same molecule?
Its GI50 is 2.54 µM.

What about the TGI [4] of the same molecule?
The TGI was over 54.2 µM.

And the GI50 [5]?
Its GI50 is 18.3 µM.

What about the TGI [5] of the same molecule?
The TGI was over 100 µM.

What about the GI50 [6] of the same molecule?
Its GI50 is over 93.7 µM.

And the TGI [6]?
The TGI was over 100 µM.

And the GI50 [7]?
Its GI50 is 57 µM.

And the TGI [7]?
Its TGI is over 100 µM.

What about the GI50 [8] of the same molecule?
Its GI50 is 47.9 µM.

What about the TGI [8] of the same molecule?
The TGI was over 100 µM.

What does the source list for `O=C(c1ccc(F)c(F)c1Nc1ccc(I)cc1F)N1CC(O)([C@@H]2CCCCN2)C1`?
GI50 [1]: 2.36 µM; TGI [1]: 17.9 µM and > 10 µM; GI50 [2]: < 0.0295 µM and 0.0851 µM; TGI [2]: 11.9 µM and > 10 µM; GI50 [3]: 0.349 µM and 0.067 µM; TGI [3]: 16.9 µM and > 10 µM; GI50 [4]: 0.0207 µM and 0.0577 µM; TGI [4]: 0.239 µM and 0.65 µM; GI50 [5]: 5.05 µM and > 6.42 µM; TGI [5]: 29.3 µM and > 10 µM; GI50 [6]: 4.62 µM and 5.26 µM; TGI [6]: 18.8 µM and > 10 µM; GI50 [7]: 4.16 µM and 3.22 µM; TGI [7]: 21.6 µM and > 10 µM; GI50 [8]: 15.7 µM and > 10 µM; TGI [8]: 32.4 µM and > 10 µM

Which results are given for `COc1ccc(-c2oc(=O)ccc2-c2cc(OC)c(OC)c(OC)c2)cc1F`?
GI50 [1]: 9.64 µM; TGI [1]: > 100 µM; GI50 [2]: 10.9 µM; TGI [2]: > 100 µM; GI50 [3]: 32.7 µM; TGI [3]: > 100 µM; GI50 [4]: 5.69 µM; TGI [4]: 65 µM; GI50 [5]: 23.9 µM; TGI [5]: > 100 µM; GI50 [6]: 22.4 µM; TGI [6]: > 100 µM; GI50 [7]: 3.04 µM; TGI [7]: 23.6 µM; GI50 [8]: 6.67 µM; TGI [8]: 89.7 µM

For `COC1[C@@H](OC(C)=O)[C@@H](NC(=O)C(Cl)(Cl)Cl)C(I)[C@@H](N2C(=O)c3ccccc3C2=O)[C@H]1OC` (stereo partly drawn), which TGI [9] is on record?
The TGI was over 100 µM.

What about the TGI [2] of the same molecule?
Its TGI is over 100 µM.

What about the TGI [3] of the same molecule?
The TGI was over 100 µM.

And the TGI [4]?
Its TGI is over 100 µM.

What about the TGI [6] of the same molecule?
The TGI was over 100 µM.

What about the TGI [7] of the same molecule?
The TGI was over 100 µM.

And the TGI [8]?
The TGI was over 100 µM.

Which TGI [1] does the source give for `Cc1ccc(-c2nc3ccc([N+](=O)[O-])cc3[nH]2)cc1` here?
The TGI was over 100 µM.

What about the TGI [2] of the same molecule?
The TGI was over 100 µM.

What about the TGI [3] of the same molecule?
The TGI was over 100 µM.

And the TGI [4]?
Its TGI is over 100 µM.

And the TGI [5]?
The TGI was over 100 µM.

And the TGI [6]?
Its TGI is over 100 µM.

What about the TGI [7] of the same molecule?
The TGI was over 100 µM.

What about the TGI [8] of the same molecule?
Its TGI is over 100 µM.

`Cc1csc(Nc2nc(-c3cccc(Br)c3)nc(C(Cl)(Cl)Cl)n2)n1` was tested. Which GI50 [1] did it give?
Its GI50 is 2.41 µM.

What about the TGI [1] of the same molecule?
The TGI was over 100 µM.

And the GI50 [2]?
The GI50 was 3.05 µM.

And the TGI [2]?
The TGI was over 100 µM.

And the GI50 [3]?
Its GI50 is 2.21 µM.

And the TGI [3]?
Its TGI is over 28.7 µM.

And the GI50 [4]?
The GI50 was 1.1 µM.

What about the TGI [4] of the same molecule?
The TGI was 6.16 µM.

What about the GI50 [5] of the same molecule?
Its GI50 is 2.94 µM.

What about the TGI [5] of the same molecule?
Its TGI is over 100 µM.

And the GI50 [6]?
Its GI50 is over 40.9 µM.

What about the TGI [6] of the same molecule?
Its TGI is over 100 µM.

And the GI50 [7]?
Its GI50 is over 100 µM.

What about the TGI [7] of the same molecule?
The TGI was over 100 µM.

What about the GI50 [8] of the same molecule?
The GI50 was 2.17 µM.

And the TGI [8]?
Its TGI is over 100 µM.

From PubChem BioAssay (NCI)
